Experimental data: ChEMBL document CHEMBL1134585, “New 3'-azido-3'-deoxythymidin-5'-yl O-(4-hydroxyalkyl or -alkenyl or -alkylepoxide) carbonate prodrugs: synthesis and anti-HIV evaluation” (J Med Chem, 2001)

Columns and labels:
[1] = half life time required for 50% hydrolysis of prodrugs to AZT at 37 degrees upon incubation in normal human serum(NHS); assay type: ADME
[2] = half life time required for 50% hydrolysis of prodrugs to AZT at 37 degrees upon incubation in Phosphate buffer saline(PBS), (0% of AZT was released); assay type: ADME
[3] = Partition coefficient (logP); assay type: physicochemical; settings: octanol/water
[4] = half life time required for 50% hydrolysis of prodrugs to AZT at 37 degrees upon incubation in Phosphate buffer saline(PBS), (8% of AZT was released); assay type: ADME
MT4 [5] = assay: Conc. required to cause 50% death of uninfected MT-4 cells; assay type: functional; settings: Homo sapiens
MT4 [6] = assay: Conc. required to inhibit the cytopathicity on HIV-1 by 50% on MT-4 cells; assay type: functional, cell-based; settings: Homo sapiens
Homo sapiens [7] = organism: Homo sapiens; assay: Conc. required to cause 50% death of uninfected PBMCs; assay type: functional
Homo sapiens [8] = organism: Homo sapiens; assay: Conc. required to inhibit HIV-1 replication on PBMCs by 50%; assay type: functional, organism-based
[9] = half life time required for 50% hydrolysis of prodrugs to AZT at 37 degrees upon incubation in Phosphate buffer saline(PBS), (% of AZT was released); assay type: ADME
MT4 [10] = assay: Conc. required to inhibit the cytopathicity of HIV-1 by 50% on MT-4 cells; assay type: functional, cell-based; settings: Homo sapiens
[11] = half life time required for 50% hydrolysis of prodrugs to AZT at 37 degrees upon incubation in Phosphate buffer saline(PBS), (8 % of AZT was released); assay type: ADME
[12] = half life time required for 50% hydrolysis of prodrugs to AZT at 37 degrees upon incubation in Phosphate buffer saline(PBS), (6% of AZT was released); assay type: ADME

Row | SMILES | T1/2 [1] | logP [3] | EC50 (Homo sapiens [8]) | CC50 (MT4 [5]) | EC50 (MT4 [6]) | CC50 (Homo sapiens [7]) | also measured
1 | CCCCOC(=O)OCC1OC(n2cc(C)c(=O)[nH]c2=O)CC1N=[N+]=[N-] (centres undefined) | 9 min |  |  |  |  |  | T1/2 [2]: > 1440 min
2 | Cc1cn([C@H]2C[C@H](N=[N+]=[N-])[C@@H](COC(=O)OC/C=C\CO)O2)c(=O)[nH]c1=O | 45 min | 0.59 | 0.052 µM | 179 µM | 0.018 µM | > 20 µM | T1/2 [4]: > 1440 min
3 | Cc1cn([C@H]2C[C@H](N=[N+]=[N-])[C@@H](COC(=O)OC/C=C/CO)O2)c(=O)[nH]c1=O | 26 min | -0.59 | 0.066 µM | 162 µM |  | > 20 µM | T1/2 [9]: > 1440 min; EC50 (MT4 [10]): 0.008 µM
4 | Cc1cn([C@H]2C[C@H](N=[N+]=[N-])[C@@H](COC(=O)OC[C@H]3O[C@H]3CO)O2)c(=O)[nH]c1=O | 80 min | 0.47 | 0.103 µM | 159 µM | 0.013 µM | > 20 µM | T1/2 [11]: > 1440 min
5 | Cc1cn([C@H]2C[C@H](N=[N+]=[N-])[C@@H](CO)O2)c(=O)[nH]c1=O [ZIDOVUDINE] |  | 0.88 | 0.056 µM | 42 µM | 0.012 µM | 15 µM | 

Second part, led by results:

Row | T1/2 [1] | logP [3] | EC50 (Homo sapiens [8]) | SMILES | CC50 (MT4 [5]) | EC50 (MT4 [6]) | CC50 (Homo sapiens [7]) | also measured
6 | 16 min |  |  | Cc1cn(C2CC(N=[N+]=[N-])C(COC(=O)OCCCCCO)O2)c(=O)[nH]c1=O (centres undefined) |  |  |  | 
7 | < 1 min |  |  | Cc1cn(C2CC(N=[N+]=[N-])C(COC(=O)OCCO)O2)c(=O)[nH]c1=O (centres undefined) |  |  |  | 
8 | 7 min |  |  | Cc1cn(C2CC(N=[N+]=[N-])C(COC(=O)OCCCCCCO)O2)c(=O)[nH]c1=O (centres undefined) |  |  |  | 
9 | 2 min |  |  | Cc1cn(C2CC(N=[N+]=[N-])C(COC(=O)OCCCCCCCCO)O2)c(=O)[nH]c1=O (centres undefined) |  |  |  | 
10 | 30 min |  | 0.031 µM | Cc1cn(C2CC(N=[N+]=[N-])C(COC(=O)OCCCCO)O2)c(=O)[nH]c1=O (centres undefined) | 262 µM | 0.006 µM | > 20 µM | T1/2 [12]: > 1440 min
11 | 10 min |  |  | Cc1cn(C2CC(N=[N+]=[N-])C(COC(=O)OCCCO)O2)c(=O)[nH]c1=O (centres undefined) |  |  |  | 
